Data on 52 sequences can be found in the supplement of paper PMC11208160.
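Further: IS621 bridge recombinase in Escherichia coli cells against a fixed T5 target plasmid.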

A short description of this data set: recombinant UMI read abundance after kanamycin selection (control-corrected) (log10(CPM+1)); higher = more efficient recombination; extreme values may be limits of the assay; sequences stand for … in AGTGCAGAGAAAATCGGCCAGTTTTCTCTGCCTGCAGTCCGCATGCCGTGGGACCCCTTGGGTTCTAACCTGTTGCCTAGATTTATGCAGCGGACTGCCTTTCTCCCAAAGTGATAAACCGG…AGGTTGGTTTCACT; site = the 11-nt donor. The method in brief:
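For the IS621 bridge recombinase, a pooled Escherichia coli screen tested donor and donor-binding-loop pairs. Cells received the pair library together with a target plasmid encoding a fixed target and T7-inducible recombinase, then went onto IPTG (0.07 mM) plus kanamycin or unselected plates in duplicate. After PCR across the donor–target junction and sequencing, recombinant UMI counts were normalized to CPM, averaged, and scaled by control-derived factors. Each value is given as log10(CPM+1).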
On to “GTATTAACATGGACCGGTTTTCCCGGTAATCCGTATTTGCA (site GTATTAACTTG)”, for which the “recombinant UMI read abundance (log10)” value worked out at 2.37.
Next, “GTATTATCATGGACCGGTTTTCCCGGTAATCCGTATTTGTG (site GTATTATCTCA)”: 2.22; “GTATTCACATGGACCGGTTTTCCCGGTAATCCGTATTTGTA (site GTATACACTTA)”: 0.154.
Next, “GTATTCACATGGACCGGTTTTCCCGGTAATCCGTATTTGTA (site GTATCCACTTA)”: 0.507.
For “GTATTCACATGGACCGGTTTTCCCGGTAATCCGTATTTGTA (site GTATGCACTTA)”, the “recombinant UMI read abundance (log10)” value stood at 0.0233.
Regarding “GTATTCACATGGACCGGTTTTCCCGGTAATCCGTATTTGTA (site GTATTCACTTA)”, the “recombinant UMI read abundance (log10)” value stood at 2.35.
With “GTATTGACATGGACCGGTTTTCCCGGTAATCCGTATTTGTG (site GTATTGACTCA)” the figure was 1.4; with “GTCAAAGCATGGACCGGTTTTCCCGGTAATCCGTATTTGGT (site GTCAAAGCTAC)”, 2.11; with “GTCAACACATGGACCGGTTTTCCCGGTAATCCGTATTTGTC (site GTCAACACTGA)”, 2.35.
With “GTCAGATCATGGACCGGTTTTCCCGGTAATCCGTATTTGCG (site GTCAGATCTCG)” the figure was 1.77; with “GTCAGTGCATGGACCGGTTTTCCCGGTAATCCGTATTTGCA (site GTCAGTGCTTG)”, 2.49.
With “GTCCAGGCATGGACCGGTTTTCCCGGTAATCCGTATTTGTA (site GTCCAGGCTTA)” the figure was 0.928.
Regarding “GTCCTATCATGGACCGGTTTTCCCGGTAATCCGTATTTGGA (site GTCCTATCTTC)”, the “recombinant UMI read abundance (log10)” value worked out at 1.41.
On to “GTCCTTACATGGACCGGTTTTCCCGGTAATCCGTATTTGAG (site GTCCTTACTCT)”, for which the “recombinant UMI read abundance (log10)” value was determined as 0.376.
Turning to “GTCGAACCATGGACCGGTTTTCCCGGTAATCCGTATTTGAC (site GTCGAACCTGT)”, the “recombinant UMI read abundance (log10)” value amounted to 0.
Next, “GTCGAATCATGGACCGGTTTTCCCGGTAATCCGTATTTGGG (site GTCGAATCTCC)”: 0.914; “GTCGAGTCATGGACCGGTTTTCCCGGTAATCCGTATTTGTT (site GTCGAGTCTAA)”: 2.79; “GTCGGGACATGGACCGGTTTTCCCGGTAATCCGTATTTGGG (site GTCGGGACTCC)”: 0.0114.
Take “GTCGGGGCATGGACCGGTTTTCCCGGTAATCCGTATTTGGC (site GTCGGGGCTGC)”: the “recombinant UMI read abundance (log10)” value stood at 1.22.
Next, “GTCGTAGCATGGACCGGTTTTCCCGGTAATCCGTATTTGCC (site GTCGTAGCTGG)”: 2.67.
Next, “GTCGTTGCATGGACCGGTTTTCCCGGTAATCCGTATTTGAA (site GTCGTTGCTTT)”: 2.14; “GTCTATACATGGACCGGTTTTCCCGGTAATCCGTATTTGAC (site ATCTATACTGT)”: 0.841.
For “GTCTATACATGGACCGGTTTTCCCGGTAATCCGTATTTGAC (site CTCTATACTGT)”, the “recombinant UMI read abundance (log10)” value stood at 0.0424.
With “GTCTATACATGGACCGGTTTTCCCGGTAATCCGTATTTGAC (site GTCTATACTGT)” the figure was 2.33.
Turning to “GTCTATACATGGACCGGTTTTCCCGGTAATCCGTATTTGAC (site TTCTATACTGT)”, the “recombinant UMI read abundance (log10)” value came to 1.01.
Next, “GTCTATTCATGGACCGGTTTTCCCGGTAATCCGTATTTGAC (site GTCTATTCTGT)”: 2.09; “GTCTGATCATGGACCGGTTTTCCCGGTAATCCGTATTTGCG (site GTCTGATCTCG)”: 2.17; “GTCTGATCATGGACCGGTTTTCCCGGTAATCCGTATTTGGG (site GTCTGATCTCC)”: 0.011.
Next, “GTCTGCACATGGACCGGTTTTCCCGGTAATCCGTATTTGTA (site GTATGCACTTA)”: 0.0171; “GTCTGCACATGGACCGGTTTTCCCGGTAATCCGTATTTGTA (site GTCTGCACTTA)”: 1.44; “GTCTGCACATGGACCGGTTTTCCCGGTAATCCGTATTTGTA (site GTGTGCACTTA)”: 0.0326.
With “GTCTGCACATGGACCGGTTTTCCCGGTAATCCGTATTTGTA (site GTTTGCACTTA)” the figure was 0.0829; with “GTGAGAACATGGACCGGTTTTCCCGGTAATCCGTATTTGGC (site GTAAGAACTGC)”, 2.2; with “GTGAGAACATGGACCGGTTTTCCCGGTAATCCGTATTTGGC (site GTCAGAACTGC)”, 0.
In the case of “GTGAGAACATGGACCGGTTTTCCCGGTAATCCGTATTTGGC (site GTGAGAACTGC)”, the “recombinant UMI read abundance (log10)” value amounted to 1.49.
With “GTGAGAACATGGACCGGTTTTCCCGGTAATCCGTATTTGGC (site GTTAGAACTGC)” the figure was 0; with “GTGAGGTCATGGACCGGTTTTCCCGGTAATCCGTATTTGCT (site GTGAGGTCTAG)”, 3.11.
With “GTGATTCCATGGACCGGTTTTCCCGGTAATCCGTATTTGCA (site GTGATTCCTTG)” the figure was 1.09; with “GTGATTCCATGGACCGGTTTTCCCGGTAATCCGTATTTGGA (site GTGATTCCTTC)”, 0.421; with “GTGATTCCATGGACCGGTTTTCCCGGTAATCCGTATTTGGT (site GTGATTCCTAC)”, 0.318.
With “GTGCCTACATGGACCGGTTTTCCCGGTAATCCGTATTTGGC (site GTGCCTACTGC)” the figure was 1.12.
In the case of “GTGCTGACATGGACCGGTTTTCCCGGTAATCCGTATTTGTT (site GTGCTGACTAA)”, the “recombinant UMI read abundance (log10)” value amounted to 0.314.
Next, “GTGCTTACATGGACCGGTTTTCCCGGTAATCCGTATTTGTA (site GTGCTTACTTA)”: 0.318; “GTGGAGGCATGGACCGGTTTTCCCGGTAATCCGTATTTGCG (site GTGGAGGCTCA)”: 1.56; “GTGGAGGCATGGACCGGTTTTCCCGGTAATCCGTATTTGCG (site GTGGAGGCTCC)”: 0.392.
Next, “GTGGAGGCATGGACCGGTTTTCCCGGTAATCCGTATTTGCG (site GTGGAGGCTCG)”: 2.28; “GTGGAGGCATGGACCGGTTTTCCCGGTAATCCGTATTTGCG (site GTGGAGGCTCT)”: 0.716.
With “GTGGAGGCATGGACCGGTTTTCCCGGTAATCCGTATTTGTC (site GTGGAGGCTAA)” the figure was 0.657; with “GTGGAGGCATGGACCGGTTTTCCCGGTAATCCGTATTTGTC (site GTGGAGGCTCA)”, 0.549.
With “GTGGAGGCATGGACCGGTTTTCCCGGTAATCCGTATTTGTC (site GTGGAGGCTGA)”, the “recombinant UMI read abundance (log10)” value was found to be 2.67.
With “GTGGAGGCATGGACCGGTTTTCCCGGTAATCCGTATTTGTC (site GTGGAGGCTTA)” the figure was 1.64; with “GTGGAGGCATGGACCGGTTTTCCCGGTAATCCGTATTTGTG (site ATGGAGGCTCA)”, 1.53.
